# According to US10167262B2, “Herbicidal substituted 3-arylpyrazoles” (FMC CORPORATION, priority 2014, dated 2019):
# Experiments:
# Type in all cases: in vivo
# [1] = system: large (Lg) crabgrass (Digitaria sanguinalis); test: Test C pre-/postemergence greenhouse test, plant response rating 0-100; conditions: Postemergence; for Plant response rating, Crabgrass, Large: scale 0 to 100
# Procedure, shortened: (§1)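 Seeds were sown in a loam soil–sand blend and sprayed preemergence with test chemicals in a non-phytotoxic solvent mixture containing surfactant; postemergence plants in peat/vermiculite medium were treated at 2–18 cm (1- to 4-leaf stage). After 13 to 15 days in the greenhouse, injury was rated visually against untreated controls.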
# soybean (Glycine max) = test: as above
# Procedure, shortened: as §1
# [2] = system: pigweed (Amaranthus retroflexus); test: as above; conditions: Postemergence; for Plant response rating, Pigweed: scale 0 to 100
# Procedure, shortened: as §1
# [3] = system: blackgrass (Alopecurus myosuroides); test: as above; conditions: Postemergence; for Plant response rating, Blackgrass: scale 0 to 100
# Procedure, shortened: as §1
# [4] = system: winter wheat (Triticum aestivum); test: as above
# Procedure, shortened: as §1
# [5] = system: Italian ryegrass (Lolium multiflorum); test: as above
# Procedure, shortened: as §1
# [6] = system: yellow nutsedge (Cyperus esculentus); test: as above; conditions: Postemergence; for Plant response rating, Nutsedge, Yellow: scale 0 to 100
# Procedure, shortened: as §1
# [7] = system: giant foxtail (Setaria faberii); test: as above; conditions: Postemergence; for Plant response rating, Foxtail, Giant: scale 0 to 100
# Procedure, shortened: as §1
# [8] = system: ragweed (common ragweed, Ambrosia elatior); test: as above
# Procedure, shortened: as §1
# [9] = system: galium (catchweed bedstraw, Galium aparine); test: as above; conditions: Postemergence; for Plant response rating, Galium: scale 0 to 100
# Procedure, shortened: as §1
# corn (Zea mays) = test: as above; conditions: Postemergence; for Plant response rating, Corn: scale 0 to 100
# Procedure, shortened: as §1
# kochia (Kochia scoparia) = test: Test C postemergence greenhouse test, plant response rating 0-100; conditions: for Plant response rating, Kochia: scale 0 to 100
# Procedure, shortened: (§2)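 Postemergence spray of formulated test chemicals on plants 2 to 18 cm tall (1- to 4-leaf stage) grown in peat/vermiculite medium. Greenhouse hold 13 to 15 days, then visual comparison with untreated controls on a 0-100 scale (0 no effect, 100 complete control); dash means no test result.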
# [10] = system: chickweed (common chickweed, Stellaria media); test: as above; conditions: for Plant response rating, Chickweed: scale 0 to 100
# Procedure, shortened: as §2
# wild oat (Avena fatua) = test: as above; conditions: for Plant response rating, Oat, Wild: scale 0 to 100
# Procedure, shortened: as §2
# [11] = Postemergence, 250 g ai/ha, scale 0 to 100
# [12] = Postemergence, 500 g ai/ha, scale 0 to 100
# [13] = Preemergence, 0 to 100 scale (0 no effect, 100 complete control), rate 500 g ai/ha per head r3, sub-head of this section not shown
smiles,measurement,setting,value
Cn1cc(C(=NN2CCCC2)c2ccccc2)c(-c2cc(Cl)c(Cl)c(Cl)c2)n1 [Compound 25],"Plant response rating (0 to 100), Crabgrass, Large",[1]; 31 g ai/ha,0
same,"Plant response rating (0 to 100), Crabgrass, Large",[1]; 62 g ai/ha,0
same,"Plant response rating (0 to 100), Crabgrass, Large",[1]; 125 g ai/ha,0
same,"Plant response rating, Crabgrass, Large",[1]; 250 g ai/ha,0
same,"Plant response rating (0 to 100), Soybean","soybean (Glycine max); Postemergence, 62 g ai/ha",0
same,"Plant response rating (0 to 100), Soybean","soybean (Glycine max); Postemergence, 125 g ai/ha",0
same,"Plant response rating, Soybean",soybean (Glycine max); [11],10
same,"Plant response rating (0 to 100), Pigweed",[2]; 62 g ai/ha,80
same,"Plant response rating (0 to 100), Pigweed",[2]; 125 g ai/ha,98
same,"Plant response rating, Pigweed",[2]; 250 g ai/ha,100
same,"Plant response rating (0 to 100), Blackgrass",[3]; 31 g ai/ha,0
same,"Plant response rating (0 to 100), Blackgrass",[3]; 62 g ai/ha,0
same,"Plant response rating, Blackgrass",[3]; 125 g ai/ha,0
same,"Plant response rating, Blackgrass",[3]; 250 g ai/ha,5
same,"Plant response rating (0 to 100), Wheat","[4]; Postemergence, 62 g ai/ha",0
same,"Plant response rating (0 to 100), Wheat","[4]; Postemergence, 125 g ai/ha",0
same,"Plant response rating, Wheat",[4]; [11],0
same,"Plant response rating (0 to 100), Ryegrass, Italian","[5]; Postemergence, 62 g ai/ha",0
same,"Plant response rating (0 to 100), Ryegrass, Italian","[5]; Postemergence, 125 g ai/ha",0
same,"Plant response rating, Ryegrass, Italian",[5]; [11],5
same,"Plant response rating (0 to 100), Nutsedge, Yellow",[6]; 62 g ai/ha,0
same,"Plant response rating (0 to 100), Nutsedge, Yellow",[6]; 125 g ai/ha,0
same,"Plant response rating, Nutsedge, Yellow",[6]; 250 g ai/ha,0
same,"Plant response rating (0 to 100), Foxtail, Giant",[7]; 31 g ai/ha,0
same,"Plant response rating (0 to 100), Foxtail, Giant",[7]; 62 g ai/ha,0
same,"Plant response rating (0 to 100), Foxtail, Giant",[7]; 125 g ai/ha,0
same,"Plant response rating, Foxtail, Giant",[7]; 250 g ai/ha,0
same,"Plant response rating (0 to 100), Ragweed","[8]; Postemergence, 62 g ai/ha",0
same,"Plant response rating (0 to 100), Ragweed","[8]; Postemergence, 125 g ai/ha",0
same,"Plant response rating, Ragweed",[8]; [11],0
same,"Plant response rating (0 to 100), Galium",[9]; 31 g ai/ha,0
same,"Plant response rating (0 to 100), Galium",[9]; 62 g ai/ha,0
same,"Plant response rating (0 to 100), Galium",[9]; 125 g ai/ha,0
same,"Plant response rating, Galium",[9]; 250 g ai/ha,0
same,"Plant response rating (0 to 100), Corn",corn (Zea mays); 31 g ai/ha,0
same,"Plant response rating (0 to 100), Corn",corn (Zea mays); 62 g ai/ha,0
same,"Plant response rating (0 to 100), Corn",corn (Zea mays); 125 g ai/ha,0
same,"Plant response rating, Corn",corn (Zea mays); 250 g ai/ha,0
same,"Plant response rating (0 to 100), Kochia",kochia (Kochia scoparia); 62 g ai/ha,0
same,"Plant response rating (0 to 100), Kochia",kochia (Kochia scoparia); 125 g ai/ha,15
same,"Plant response rating, Kochia",kochia (Kochia scoparia); 250 g ai/ha,15
same,"Plant response rating (0 to 100), Chickweed",[10]; 31 g ai/ha,10
same,"Plant response rating (0 to 100), Chickweed",[10]; 62 g ai/ha,75
same,"Plant response rating (0 to 100), Chickweed",[10]; 125 g ai/ha,75
same,"Plant response rating, Chickweed",[10]; 250 g ai/ha,75
same,"Plant response rating (0 to 100), Oat, Wild",wild oat (Avena fatua); 62 g ai/ha,0
same,"Plant response rating (0 to 100), Oat, Wild",wild oat (Avena fatua); 125 g ai/ha,0
same,"Plant response rating, Oat, Wild",wild oat (Avena fatua); 250 g ai/ha,10
O=C(c1ccccc1)c1cn(S(=O)(=O)C(F)(F)F)nc1-c1cc(Cl)cc(Cl)c1 [Compound 2],"Plant response rating (0 to 100), Crabgrass, Large",[1]; 62 g ai/ha,0
same,"Plant response rating (0 to 100), Crabgrass, Large",[1]; 125 g ai/ha,0
same,"Plant response rating, Crabgrass, Large",[1]; 250 g ai/ha,0
same,"Plant response rating, Crabgrass, Large",[1]; 500 g ai/ha,0
same,"Plant response rating (0 to 100), Soybean","soybean (Glycine max); Postemergence, 62 g ai/ha",0
same,"Plant response rating (0 to 100), Soybean","soybean (Glycine max); Postemergence, 125 g ai/ha",0
same,"Plant response rating, Soybean",soybean (Glycine max); [11],0
same,"Plant response rating, Soybean",soybean (Glycine max); [12],5
same,"Plant response rating, Soybean",soybean (Glycine max); [13],0
same,"Plant response rating (0 to 100), Pigweed",[2]; 62 g ai/ha,90
same,"Plant response rating (0 to 100), Pigweed",[2]; 125 g ai/ha,90
same,"Plant response rating, Pigweed",[2]; 250 g ai/ha,98
same,"Plant response rating, Pigweed",[2]; 500 g ai/ha,100
same,"Plant response rating (0 to 100), Blackgrass",[3]; 62 g ai/ha,0
same,"Plant response rating, Blackgrass",[3]; 125 g ai/ha,0
same,"Plant response rating, Blackgrass",[3]; 250 g ai/ha,0
same,"Plant response rating, Blackgrass",[3]; 500 g ai/ha,0
same,"Plant response rating (0 to 100), Wheat","[4]; Postemergence, 62 g ai/ha",0
same,"Plant response rating (0 to 100), Wheat","[4]; Postemergence, 125 g ai/ha",0
same,"Plant response rating, Wheat",[4]; [11],0
same,"Plant response rating, Wheat",[4]; [12],0
same,"Plant response rating, Wheat","[4]; Preemergence, 0 to 100 scale (0 no effect, 100 complete control), rate 500 g ai/ha",0
same,"Plant response rating (0 to 100), Ryegrass, Italian","[5]; Postemergence, 62 g ai/ha",0
same,"Plant response rating (0 to 100), Ryegrass, Italian","[5]; Postemergence, 125 g ai/ha",0
same,"Plant response rating, Ryegrass, Italian",[5]; [11],0
same,"Plant response rating, Ryegrass, Italian",[5]; [12],0
same,"Plant response rating, Ryegrass, Italian",[5]; [13],0
same,"Plant response rating (0 to 100), Nutsedge, Yellow",[6]; 62 g ai/ha,0
same,"Plant response rating (0 to 100), Nutsedge, Yellow",[6]; 125 g ai/ha,0
same,"Plant response rating, Nutsedge, Yellow",[6]; 250 g ai/ha,0
same,"Plant response rating, Nutsedge, Yellow",[6]; 500 g ai/ha,0
same,"Plant response rating (0 to 100), Foxtail, Giant",[7]; 62 g ai/ha,0
same,"Plant response rating (0 to 100), Foxtail, Giant",[7]; 125 g ai/ha,0
same,"Plant response rating, Foxtail, Giant",[7]; 250 g ai/ha,0
same,"Plant response rating, Foxtail, Giant",[7]; 500 g ai/ha,0
same,"Plant response rating (0 to 100), Ragweed","[8]; Postemergence, 62 g ai/ha",40
same,"Plant response rating (0 to 100), Ragweed","[8]; Postemergence, 125 g ai/ha",60
same,"Plant response rating, Ragweed",[8]; [11],60
same,"Plant response rating, Ragweed",[8]; [12],70
same,"Plant response rating, Ragweed",[8]; [13],0
same,"Plant response rating (0 to 100), Galium",[9]; 62 g ai/ha,0
same,"Plant response rating (0 to 100), Galium",[9]; 125 g ai/ha,0
same,"Plant response rating, Galium",[9]; 250 g ai/ha,50
same,"Plant response rating, Galium",[9]; 500 g ai/ha,50
same,"Plant response rating (0 to 100), Corn",corn (Zea mays); 62 g ai/ha,0
same,"Plant response rating (0 to 100), Corn",corn (Zea mays); 125 g ai/ha,0
same,"Plant response rating, Corn",corn (Zea mays); 250 g ai/ha,0
same,"Plant response rating, Corn",corn (Zea mays); 500 g ai/ha,0
same,"Plant response rating (0 to 100), Kochia",kochia (Kochia scoparia); 62 g ai/ha,80
same,"Plant response rating (0 to 100), Kochia",kochia (Kochia scoparia); 125 g ai/ha,85
same,"Plant response rating, Kochia",kochia (Kochia scoparia); 250 g ai/ha,90
same,"Plant response rating, Kochia",kochia (Kochia scoparia); 500 g ai/ha,95
same,"Plant response rating (0 to 100), Chickweed",[10]; 62 g ai/ha,98
same,"Plant response rating (0 to 100), Chickweed",[10]; 125 g ai/ha,100
same,"Plant response rating, Chickweed",[10]; 250 g ai/ha,100
same,"Plant response rating, Chickweed",[10]; 500 g ai/ha,100
same,"Plant response rating (0 to 100), Oat, Wild",wild oat (Avena fatua); 62 g ai/ha,0
same,"Plant response rating (0 to 100), Oat, Wild",wild oat (Avena fatua); 125 g ai/ha,0
same,"Plant response rating, Oat, Wild",wild oat (Avena fatua); 250 g ai/ha,0
same,"Plant response rating, Oat, Wild",wild oat (Avena fatua); 500 g ai/ha,0
